Reference: PubChem BioAssay AID720588 (Broad Institute, 2013)

System: HEK293T viability, CellTiter-Glo ATP luminescence, 72 h
Assay: ATP-based viability loss in HEK293T cells – cell-based, CellTiter-Glo luminescence, cherry-pick, set 3, cytotoxicity control, dose response (AID 720588);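 also: potency for luminescence loss meaning cytotoxic compounds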

| SMILES | AC35 [µM] |
| --- | --- |
| CO[C@H]1CN(C)C(=O)c2cc(NC(=O)c3ccc(Oc4ccccc4)cc3)ccc2OC[C@H](C)NC[C@@H]1C | 14.5 |
| O=C1Nc2ccccc2C1=Nc1ccc(Br)cc1 | 14.1 |
| Cc1cccc(/C=C(\c2nc3ccccc3[nH]2)S(=O)(=O)c2ccccc2)c1 | 8.44 |
| Cc1ccccc1S(=O)(=O)N1CC[C@@H]2[C@@H](CO)Nc3ccc(-c4ccc(C#N)cc4)cc3[C@@H]21 | 14.8 |
| Cc1cc(C)c2sc(NNC(=O)c3ccc(S(=O)(=O)N4CCc5ccccc5C4)cc3)nc2c1 | 5.13 |
| Cc1ccc2nc(-c3ccccc3)nn2c1 | 11.7 |
| Cc1cccc(CN2C(=O)/C(=C\c3ccc(C(=O)NCCCN4CCN(C)CC4)cc3)Oc3ccccc32)c1 | 13.6 |
| COC1C(O)C(C)OC(OC2C(Oc3cccc4c(O)c5c(=O)oc6ccc(C)c7c(=O)oc(c34)c5c67)OC(C)C(O)C2O)C1O (stereo not given) | 15.1 |
| c1ccc(Nc2nnc(-c3ccc4c(c3)OCO4)o2)cc1 | 3.33 |
| C[C@H]1CN([C@@H](C)CO)S(=O)(=O)c2ccc(C#CC(C)(C)O)cc2O[C@@H]1CN(C)Cc1ccc(-c2ccccc2)cc1 | 3.6 |
| C(=N\Nc1ccc2ccccc2n1)/c1ccc2c(c1)OCCO2 | 10.4 |
| C[C@H](CO)N1C[C@H](C)[C@H](CN(C)Cc2ccc(Oc3ccccc3)cc2)Oc2ccc(NC(=O)Cn3cnnn3)cc2CC1=O | 15.5 |
| CC(=O)Oc1ccc(-c2ccc(C(=O)Nc3cccc(S(=O)(=O)N4CCOCC4)c3)cc2)cc1 | 0.274 |
| Cc1ccc(C(=O)O/N=C(\N)c2ccccn2)cc1 | 14.9 |
| O=C1NC(=O)N(Cc2ccc(F)cc2)C(=O)/C1=C\C=C\c1ccco1 | 13.3 |
| COc1ccc(S(=O)(=O)Nc2ccc3c(c2)C(=O)N([C@H](C)CO)C[C@@H](C)[C@@H](CN(C)CC2CCCCC2)OCCCC[C@H](C)O3)cc1 | 14.1 |
| O=C(C[C@@H]1C[C@H]2c3cc(NS(=O)(=O)c4ccc(F)cc4)ccc3O[C@H]2[C@H](CO)O1)NCc1ccc(-c2ccccc2)cc1 | 18.7 |
| CC1OC(OC2CC(O)C3(CO)C4C(O)CC5(C)C(C6=CC(=O)OC6)CCC5(O)C4CCC3(O)C2)C(O)C(O)C1O (stereo not given) | 0.0877 |
| COC(=O)C1=C(C)N(Cc2ccccc2C(F)(F)F)C(=NCc2ccc(OC)cc2)NC1c1ccc(C(F)(F)F)cc1 (stereo not given) | 9.47 |
| COc1ccc([Si](C)(C)[C@H]2[C@H](CCO)O[C@@]3(C(=O)N(c4ccccc4)c4ccccc43)[C@@H]2C)cc1 | 15 |
| N#C[C@H]1[C@H](c2ccc(C#Cc3ccccc3F)cc2)[C@@H](CO)N1C(=O)C1CCCCC1 | 13.2 |
| Cc1cccc(/C=N/Nc2ccc3ccccc3n2)c1 | 11.2 |
| C/C(=N\Nc1cccc2cccnc12)c1ccccn1 | 11.8 |
| CC(=NNc1cc(C)c2ccccc2n1)c1ccccn1 | 2 |
| CCc1nc(N)nc(N)c1-c1ccc(Cl)cc1 | 15.9 |
